Entries after “also recorded” stand apart in the source; their conditions may differ. Read-outs that look alike come from different tables or passages of the source.
Tests used:
[1] = test system: human pancreatic islet cells; experiment: Toxicity against human pancreatic islet cells (C-peptide positive cell count); format: cell-based
Experimental: (§1) Human pancreatic islets from a deceased donor (Islet Research Resource ID: SAMN15400953) were purchased from the Integrated Islet Distribution program, dissociated, and cultured as described previously ([…] and Wagner. Curr. Protocols in Chem. Biol. 6: 157-168). In brief, 384 well plates (Perkin Elmer, CellCarrier Ultra, #6057300) were coated in ECM 2-3 days before the start of the experiment. HTB-9 cells (ATTC, 5637) were seeded at 10K/well into the 384 well plates and grown to confluence. All culture media was aspirated and 50 ul/well of 20 mM NH4OH in PBS (Sigma) was added. The plates were incubated at 37 C for 6 minutes, after which the NH4OH was pipetted up and down 4-5 times before being aspirated. The wells were then filled with 50 ul/well PBS until seeding with human islets. Human islets were pelleted and dissociated with StemPro Accutase (Life Technologies, A11105-01) at 37 C for 20-25 minutes followed by pipetting to mix 5-7 times. The dissociated islets were resuspended in CMRL 1066 medium (CellGro, cat. no. 15-110-CV) supplemented with 10% FBS, 1× L-glutamine, and 1× penicillin/streptomycin, filtered through a nylon mesh to remove large cell aggregates, and seeded at 10K/well density in the coated 384w plate. These islets were maintained in full CMRL media at 37 C, 95% humidity, and 5% CO2 with media changes every third day. For testing of free fatty acids for toxicity against human pancreatic islet cells (FIG. 8), C2, C3, and C4 free fatty acids were incubated with human pancreatic islet cells at concentrations of 250 μM, 500 μM, and 1 mM for 120 hours with one media change at 72 hours. The islets were subsequently fixed with 3% paraformaldehyde for 20 minutes, permeabilized with 0.2% TritonX-100 for another 20 minutes, and blocked for 3 hours at RT in 2% BSA in PBS (SeraCare, AP-45100-80). The islets were stained with C-peptide antibody (Developmental studies hybridoma bank at University of Iowa) at 1:100 in 2% BSA/PBS overnight rocking at 4 C, washed with PBS three times followed by once with 1% BSA/PBS, and then incubated with 568 Goat anti-rat (Life technologies, A11077) at 1:1000 and Hoechst (Thermo Fisher Scientific) at 1:1000 for one hour at RT. These islets were then imaged with the Operetta CLS High Content Screening System (#HH16000000, Perkin Elmer). The number of C-peptide positive cells in each well was quantified using Harmony software (PerkinElmer) and used as a proxy for cell viability.

[2] = test system: ATF4 and CHOP; experiment: Western blot, induction of the UPR; format: cell-based, mouse; details: MIN6 cells, BSA negative control
Experimental: MIN6 cells were lysed (#9803, Cell Signaling Technology) in the presence of protease inhibitors (#05892791001, Roche) and phosphatase inhibitors (#04906837001, Roche). Protein concentrations were quantified with the Pierce BCA Protein Assay Kit (#23225, Thermo Fisher Scientific). NuPAGE LDS sample buffer (#NP0008, Thermo Fisher Scientific) was added to normalized protein lysates together with NuPAGE reducing agent (#NP0004, Thermo Scientific). Lysates were heated to 95° C. for 5 min prior to SDS-PAGE gel electrophoresis (NuPAGE MES SDS running buffer, Thermo Fisher Scientific, #NP0002). Proteins were transferred to a nitrocellulose membrane (#1704158, BioRad) with the Trans-Blot® Turbo™ Blotting System (#1704155, BioRad) according to the manufacturer's protocol. Membranes were blocked in 5% Nonfat Dry Milk (#9999S, Cell Signaling Technology) in PBS with 0.1% Tween® 20 (PBS-T). Primary antibodies were incubated at 4° C. overnight, secondary antibodies were incubated at room temperature for 1 h. Super Signal West Dura (#34076, Thermo Fisher Scientific) or Super Signal West Pico (#34087, Thermo Fisher Scientific) were used to visualize immunoreactive bands imaged by G:BOX Chemi XT4:BOX-CHEMI-XT4, Syngene). Primary Antibodies used in this study: CPT1A: (Abcam #ab128568), ATF4: (CST #11815), CHOP: (CST #2895).

[3] = test system: MIN6 cells; format: cell-based
Experimental: For high throughput cell viability assay, cells were seeded in 384 well plates (Perkin Elmer, CellCarrier Ultra, #6057300) and treated for 24, 48 and 72 h with the FFA library. Just before readout, cell nuclei were stained with Hoechst (Thermo Fisher Scientific) for 1 h at 37° C. and imaged with the Opera Phenix High Content Screening System (#HH14000000, Perkin Elmer). Number of counted nuclei was determined with the image analysis software Harmony (PerkinElmer) and used as a proxy for cell viability. For low throughput validation experiments, cells were treated for 48 h with representative FFAs in CellCarrier-384 Ultra Microplates. Caspase 3/7 (Thermo Fisher Scientific, #C10423) activation and propidium iodide (Thermo Fisher Scientific, #P1304MP) staining were used to calculate the fraction of apoptotic cells and dead cells, respectively. Single cells were identified and counted after staining their nuclei with Hoechst. Fluorescence intensities were then measured and the threshold for Caspase 3/7 and propidium iodide positive staining was determined manually. Cell viability was calculated as the fraction of cells that were neither Caspase 3/7 nor propidium iodide positive.

[4] = test system: MIN6 cells; experiment: ER calcium levels (Fluo4, thapsigargin, FLIPR Tetra); format: cell-based, mouse; details: FFA treatment 24 h, relative to negative control (BSA)
Experimental: MIN6 cells were plated in 384 well plates (Aurora, Black 384 SQ Well 188 micron Film, #1022-10110) and treated with the FFA library for 24 h prior to readout. Cells were carefully washed three times with HBSS (with calcium, Thermo Fisher Scientific, #14025076) using an automated simultaneous pipettor (analytikjena CyBio® Well vario) and incubated with the fluorescent calcium indicator Fluo4 (2 μM, Life Technologies, #F14202) in DMEM without additions for 1 h at room temperature. Then, cells were washed again in HBSS (with calcium) and incubated for another 30 min at room temperature in DMEM without additions. Just before the readout, cells were washed in final calcium free assay buffer solution (140 mM NaCl, 5 mM Kcl, 10 mM HEPES, 2 mM MgCl2, 10 mM EGTA, 10 mM Glucose) and left with 25 ul assay volume per well. Assay plates were immediately transferred to the FLIPR Tetra® High-Throughput Cellular Screening System. The plate was recorded with a frequency of 1 Hz for 10 min. Baseline was recorded for 30 s before the automated liquid transfer system of the FLIPR added the SERCA inhibitor Thapsigargin (final concentration 10 μM) in calcium free assay buffer. The resulting passive efflux of calcium from the ER induced a transient cytosolic fluorescence signal and the peak amplitudes were used to indirectly quantify ER calcium levels (See Extended Data FIG. 3d). The resulting trajectories were corrected for a pipetting artifact and baseline normalized. Log 2 Fold changes were calculated according to plate location specific negative (BSA) controls. The exclusion of one outlier/FFA/plate (n=5) based on a 3 sigma cutoff was allowed. P-values were calculated with Student's t-test (two-sided) and corrected for multiple testing (Benjamin & Hochberg).

[5] = test system: NF-κB p65/RELA; experiment: RELA nuclear translocation, immunofluorescence; format: cell-based, mouse; details: MIN6 cells, 18 hours, BSA negative control
Experimental: Cells grown on 384 well CellCarrier Ultra microplates (#6057308, PerkinElmer) were fixed 10 min in PBS containing 4% PFA (Electron Microscopy Sciences), permeabilized 15 min in 0.5% Triton X-100 (Sigma-Aldrich), blocked for 1 h in blocking reagent (100 mM Tris HCL pH8; 150 mM NaCL; 5 g/L Blocking Reagent (#11096176001, Roche)) and treated for 1.5 h with primary antibody diluted in blocking reagent (NF-κB p65/RELA, Rabbit monoclonal antibody, 1:200, (#8242, Cell Signaling Technology). Cells were washed three times in PBS and incubated for 0.5 h with fluorescent-labeled secondary antibody in blocking solution (1:500, Alexa Fluor 568 Goat anti-Rabbit IgG, (#A11036, Thermo Fisher Scientific)). Cytoplasmic actin filaments were stained with Phalloidin conjugated with Alexa 647 (1:40, #A22287, Thermo Fisher Scientific) and nuclei were counterstained with Hoechst (1:2000, #H3570, Thermo Fisher Scientific). Cells were washed three times in PBS and imaged using the Opera Phenix High Content Screening System, #HH14000000, Perkin Elmer). A minimum of nine fields was acquired per well using 20× water immersion objectives in a confocal mode. Image analysis was performed using the Harmony software (PerkinElmer). Cell nuclei were first identified using Hoechst staining and nuclear region was defined for each cell. Phalloidin staining was then used to detect and define the cytoplasmic region of the cell. RELA fluorescent intensity was measured separately in the nuclear and cytoplasmic regions and a threshold for a nuclear translocation was defined using negative (BSA) and positive (TNFα) controls. For each well the fraction of cells identified for RELA nuclear translocation was calculated.

[6] = Toxicity against human pancreatic islet cells (C-peptide positive cell count); format: cell-based; details: female, dissociated human pancreatic islet cells; human islet cells, 120 hours; relative to the C3 and tested C4 free fatty acids; read-out: decrease of human pancreatic cell viability
Experimental: as §1

[7] = MIN6 cells, representative FFAs, 48 h

Structure (SMILES)	decrease of human pancreatic cell viability [1]	induction of the UPR (ATF4 and CHOP protein abundance) [2]	apoptosis (caspase activity) and cell death (propidium iodide positive nuclei); cell viability [3]	ER Ca^2+ levels (peak amplitude after thapsigargin 10 μM) [4]	apoptosis (caspase activity) and cell death (propidium iodide positive nuclei); cell viability [3, 7]	nuclear translocation of RELA (p65) [5]	human pancreatic cell viability ([1]; human islet cells, 250 μM, 500 μM, 1 mM, 120 hours, relative to C3 FFAs 9Z-octadecenoic acid, 6Z-octadecenoic acid and C4 FFA 10Z-nonadecenoic acid)	cytotoxicity at 120 h [6]
CCCCCCCC/C=C\CCCCCCCCCCCCC(=O)O [14Z-tricosenoic acid, 14(Z)-Tricosenoic acid]	more than 50%							
CCCCCCCC/C=C\CCCCCCCCCCCCCC(=O)O [15Z-tetracosenoic acid, 15(Z)-Tetracosenoic acid]	more than 50%							
CCCCC/C=C\C/C=C\C/C=C\C/C=C\CCCC(=O)O [AA, 5(Z),8(Z),11(Z),14(Z)-Eicosatetraenoic Acid]		None	trended towards decreased viability	increased				
CCCCCCCC/C=C\CCCCCCCCCCCC(=O)O [EA, 13(Z)-Docosenoic acid]		upregulation of ATF4 and CHOP protein abundance; also recorded: inducing ATF4 and CHOP		significant reduction of ER Ca^2+ levels	consistently induced apoptosis and cell death; also recorded: reduced cell viability	translocated to the nucleus; also recorded: Complete translocation of RELA from the cytosol to the nucleus	decreased human pancreatic cell viability	> 50%
CCCCC/C=C\C/C=C\C/C=C\CCCCC(=O)O [GLA, gamma-linoleic acid]		None		increased	trended towards decreased viability			
CCCCCCCC/C=C\CCCCCCCC(=O)O [OA, 9(Z)-Octadecenoic acid]		None	not associated with changes in cell viability	near-baseline				
CCCCCCCCCCCCCCCC(=O)O [PA, Hexadecanoic acid]		upregulation of ATF4 and CHOP protein abundance; also recorded: inducing ATF4 and CHOP		significant reduction of ER Ca^2+ levels		translocated to the nucleus		
CCCCCCCCCCC/C=C\CCCCC(=O)O [PSA, petroselenic acid]		None		near-baseline	not associated with changes in cell viability	moderate RELA translocation to the nucleus		
